From US9145411B2, “Substituted amino-pyrimidine derivatives” (Asana Biosciences, LLC, priority 2012, dated 2015)

How the values were obtained:
pAKT (T308) = experiment: In vivo PK/PD study, U87MG tumor xenograft, pAKT (T308); details: U87MG tumor-bearing xenograft mice, 50 mg/kg po
Protocol: (§1) PC3 cells are cultured at 37° C. in a 5% CO2 incubator using Hams F12 K medium. Ten million (10^7) cells are injected subcutaneously to the right flank region of athymic male mice (Harlan, age: 6-7 weeks, weight: about 20 g). Tumor bearing mice are randomized when the tumor volume reaches about 250 mm^3 and three mice are used per each time point. Test compounds of formula (I) are typically formulated in 40% HPCD in 1×PBS, pH 7.4 or in 10% Ethanol/40% Solutol/50% 50 mM aq. methanesulfonic acid and dosed orally at 50 mg/kg single dose (dose volume—10 mL/kg). Plasma and tumor samples are collected at 0 (vehicle control animals), 1, 4 and 24 hours post dosing. Blood is drawn (retro orbital) to a tube containing 0.2% EDTA for plasma collection. […] Tumor and plasma drug concentrations are measured for PK analysis using LC-MS.
(§2) Snap frozen tumor samples are pulverized in a mortar (Belart) containing liquid nitrogen and tumor powder is stored at −80° C. until analysis. […] The detection for pAKT is based on chemiluminescence and pS6RP is based on absorbance. […]
(§3) In vivo pharmacokinetic/pharmacodynamic (PK/PD) studies were carried out in a similar manner using U87MG tumor cells (glioma cancer cell line with a PTEN null mutation) and the corresponding tumor-bearing xenograft mice, and compounds of the invention were determined to be active in this assay. […]

pAKT (S473) = experiment: In vivo PK/PD study, U87MG tumor xenograft, pAKT (S473); details: U87MG tumor-bearing xenograft mice, 50 mg/kg po
Protocol: as §1, §2, §3

PI3Kα mutation E545K = PI3Kα mutation E545K (Homo sapiens, UniProt P42336, E545K); experiment: PI3 Kinase TR-FRET assay, PI3Kα mutation E545K; type: biochemical; details: read-out: inhibition of PI3Kα mutation E545K, IC50
Protocol: The ability of compounds of the invention to inhibit PI3K activity was determined in a homogeneous TR-FRET assay using a PI3K assay kit (Millipore, USA; cat #33-016) according to manufacturer's instructions. PI3-Kinases (isoforms α, β, γ and δ) catalyze the phosphorylation of phosphatidylinositol, PIP2 to PIP3 in the presence of ATP and Mg^2+. The PIP3 product is detected by displacement of biotin-PIP3 from an energy transfer complex consisting of Europium labeled anti-GST monoclonal antibody, a GST-tagged PH domain, biotinylated PIP3 and Streptavidin-APC. Excitation of Europium in the complex results in an energy transfer to the APC and a fluorescence emission at 665 nm. The PIP3 product displaces biotin-PIP3 from the complex resulting in a loss of energy transfer and thus a decrease in signal.
To test for the ability of compounds to inhibit the activity of PI3Kα (wild-type), exemplary compounds of formula (I) were dissolved in DMSO and directly distributed into 384-well plates at a volume of 0.5 μL. 14.5 μL of P110/P85α/PIP2 mixture in buffer (obtained from the Millipore kit) containing MgCl2 (40 mM) and DTT (5 mM) was added to compound wells and incubated for 60 minutes at room temperature. P110/P85α was expressed in SF9 insect cells and purified nickel column extraction. Five ng of wild-type P110/P85α was used in the assay. The kinase reaction was started by the addition of ATP. The assay concentrations of both PIP2 and ATP were 10 μM. The reaction mixture was incubated for 30 minutes at room temperature and was terminated by the addition of stop mix and detection mix. Fluorescence was measured at 615 and 665 nm upon excitation at 340 nm in a Victor™ V5 fluorometer (Perkin Elmer, USA). The fluorescence emission ratio at 665 to 615 nm, proportional to the kinase activity, was plotted against the compound concentration to generate dose-response curves and IC50 values were determined using GraphPad Prism® 5 software.
The activity of PI3Kα mutations H1047R and E545K were assayed in a similar manner to the assay protocol described above for PI3Kα (wild type). The compounds of formula (I) caused inhibition of PI3Kα mutations H1047R (a mutation associated with breast and gastric cancers) and E545K (a mutation associated with colorectal tumors, glioblastomas, gastric cancers, breast cancers, and lung cancers). For example, each of the compounds of Example 3, 7, 21, 47, 48 and 49 caused inhibition of each of the PI3Kα mutations H1047R and E545K with IC50 values<50 nM.

BT474 cells = experiment: XTT assay for cell viability, BT474 cells; type: cell-based; details: Homo sapiens, BT-474, read-out: inhibition of BT474 cell proliferation, IC50
Protocol: Using a commercial kit from Sigma Aldrich (Catalog #X34251) and following its protocol, PC3 cells in the log phase of growth were employed and seeded at an optimal density of 1000 cell/well on to 96 well plates and incubated for 24 hours followed by the addition of compounds of formula (I) in serial dilutions. Compound dilutions were made in DMSO. The cells were incubated with the compounds of formula (I) for 96 hours and XTT tetrazolium dye (Sigma, USA) was subsequently added and incubated at 37° C. After the color formation, absorbance was measured at 465 nm in a Spectramax® Gemini spectrophotometer. EC50 values were calculated using a sigmoidal dose response curve fit in GraphPad Prism® v5 software. The tested compounds of formula (I) which caused inhibition of PC3 cell proliferation as determined by this assay protocol are shown in Table 2.
XTT assays for cell viability were also determined in U87MG, BT474 cells and T47D cells, in a similar manner to the protocol described above. The compounds cause inhibition of U87MG, BT474 and T47D cell proliferation as determined by these assays. For example, the compounds of Examples 3 and 7 caused inhibition of U87MG, BT474 and T47D cell proliferation with IC50 values<600 nM.

Chain of PI3Kα mutation E545K (P42336 whole entry E545K, the tested form may be a part, canonical isoform): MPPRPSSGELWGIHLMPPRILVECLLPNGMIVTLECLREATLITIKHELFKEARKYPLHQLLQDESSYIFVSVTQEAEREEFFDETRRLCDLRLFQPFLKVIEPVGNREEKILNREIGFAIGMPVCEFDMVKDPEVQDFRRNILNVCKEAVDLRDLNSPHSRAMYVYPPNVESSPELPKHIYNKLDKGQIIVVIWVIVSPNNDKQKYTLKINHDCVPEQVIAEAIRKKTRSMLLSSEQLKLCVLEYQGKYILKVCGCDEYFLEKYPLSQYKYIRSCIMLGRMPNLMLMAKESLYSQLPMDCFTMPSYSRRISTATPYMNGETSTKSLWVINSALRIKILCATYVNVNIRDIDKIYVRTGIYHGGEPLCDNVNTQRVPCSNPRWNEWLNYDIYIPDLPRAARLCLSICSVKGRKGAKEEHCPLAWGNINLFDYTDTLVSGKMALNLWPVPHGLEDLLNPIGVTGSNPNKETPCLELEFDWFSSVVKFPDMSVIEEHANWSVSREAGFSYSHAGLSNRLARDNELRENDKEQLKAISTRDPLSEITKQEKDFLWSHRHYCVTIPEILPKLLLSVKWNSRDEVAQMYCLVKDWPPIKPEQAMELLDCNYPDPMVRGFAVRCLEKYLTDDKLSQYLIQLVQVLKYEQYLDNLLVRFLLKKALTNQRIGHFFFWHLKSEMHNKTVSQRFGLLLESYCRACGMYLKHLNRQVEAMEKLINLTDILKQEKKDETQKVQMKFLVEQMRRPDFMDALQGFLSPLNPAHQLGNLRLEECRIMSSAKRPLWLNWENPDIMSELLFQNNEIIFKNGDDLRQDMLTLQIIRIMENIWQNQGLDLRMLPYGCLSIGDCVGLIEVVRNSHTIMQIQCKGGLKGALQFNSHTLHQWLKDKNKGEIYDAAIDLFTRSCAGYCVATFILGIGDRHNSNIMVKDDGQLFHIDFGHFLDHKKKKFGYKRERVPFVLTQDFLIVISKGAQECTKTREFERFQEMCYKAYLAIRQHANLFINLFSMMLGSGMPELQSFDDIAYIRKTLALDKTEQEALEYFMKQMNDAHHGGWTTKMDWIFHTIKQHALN
Chain of PI3Kα mutation E545K (P27986 whole entry partner, the tested form may be a part, canonical isoform): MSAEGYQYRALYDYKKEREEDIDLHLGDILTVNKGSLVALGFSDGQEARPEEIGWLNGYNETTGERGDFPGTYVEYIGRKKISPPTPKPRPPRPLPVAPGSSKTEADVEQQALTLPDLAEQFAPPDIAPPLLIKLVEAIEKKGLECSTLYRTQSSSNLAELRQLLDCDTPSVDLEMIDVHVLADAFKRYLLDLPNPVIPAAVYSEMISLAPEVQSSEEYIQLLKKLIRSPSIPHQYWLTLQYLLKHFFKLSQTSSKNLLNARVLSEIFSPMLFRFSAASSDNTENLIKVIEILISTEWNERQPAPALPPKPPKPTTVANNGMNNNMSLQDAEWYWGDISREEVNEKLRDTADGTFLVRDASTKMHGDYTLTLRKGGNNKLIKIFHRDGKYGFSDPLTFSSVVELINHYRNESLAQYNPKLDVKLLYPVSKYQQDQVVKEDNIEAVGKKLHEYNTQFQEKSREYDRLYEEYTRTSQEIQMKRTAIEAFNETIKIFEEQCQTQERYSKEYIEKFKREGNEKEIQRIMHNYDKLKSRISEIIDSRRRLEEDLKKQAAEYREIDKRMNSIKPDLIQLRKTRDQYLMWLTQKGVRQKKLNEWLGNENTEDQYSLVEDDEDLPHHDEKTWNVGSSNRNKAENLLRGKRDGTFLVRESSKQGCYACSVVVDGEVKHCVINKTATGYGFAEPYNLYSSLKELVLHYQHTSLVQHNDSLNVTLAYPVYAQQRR

Row | IC50 (PI3Kα mutation E545K) [nM] | IC50 (BT474 cells) [nM] | SMILES | suppression of pAKT (T308) (pAKT (T308)) | suppression of pAKT (S473) (pAKT (S473))
1 | < 50 | < 600 | CC(=O)Nc1cccc(-c2cnc3c(N4CCOCC4)nc(-c4cnc(N)nc4)nc3c2)c1 [Example 3, N-(3-(2-(2-Aminopyrimidin-5-yl)-4-morpholinopyrido[3,2-d]pyrimidin-7-yl)-phenyl)acetamide] | suppression | suppression
2 | < 50 | < 600 | Nc1ncc(-c2nc(N3CCOCC3)c3ncc(-c4cccc(NC(=O)C5CC5)c4)cc3n2)cn1 [Example 7, N-(3-(2-(2-Aminopyrimidin-5-yl)-4-morpholinopyrido[3,2-d]pyrimidin-7-yl)-phenyl)cyclopropanecarboxamide] |  | 
3 |  |  | N#CC1(C(=O)Nc2cccc(-c3cnc4c(N5CCOCC5)nc(-c5cnc(N)nc5)nc4c3)c2)CC1 [Example 61, N-(3-(2-(2-amino-pyrimidin-5-yl)-4-morpholinopyrido[3,2-d]pyrimidin-7-yl)phenyl)-1-cyanocyclopropane-carboxamide] | suppression | suppression
